Reference: PubChem BioAssay (NCI)
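Protocol summary: plate cells (96-well), add compound at 5 concentrations, incubate 48 h, interpolate endpoints linearly. TGI denotes the concentration required for complete inhibition of growth.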

Tests used:
Assay in all cases: NCI tumour cell line growth inhibition, 48 h
M19-MEL melanoma = tested on: M19-MEL melanoma
SN12C renal = tested on: SN12C renal
LXFL 529 NSCLC = tested on: LXFL 529 NSCLC
RPMI-8226 leukemia = tested on: RPMI-8226 leukemia
XF 498 CNS = tested on: XF 498 CNS
KM20L2 colon = tested on: KM20L2 colon
DLD-1 colon = tested on: DLD-1 colon
DMS 273 small cell lung = tested on: DMS 273 small cell lung
SNB-78 CNS = tested on: SNB-78 CNS
DMS 114 small cell lung = tested on: DMS 114 small cell lung
RXF-631 renal = tested on: RXF-631 renal
HOP-18 NSCLC = tested on: HOP-18 NSCLC
MDA-MB-435 = tested on: MDA-MB-435

Compound COC(=O)C(=O)C(/C(=N/N)C(=O)Nc1ccccc1C(N)=O)c1nc2ccc([N+](=O)[O-])cc2[nH]c1=O (stereo not given) has a TGI (M19-MEL melanoma) of over 100 µM, a TGI (SN12C renal) of over 100 µM and a TGI (LXFL 529 NSCLC) of over 100 µM. It also gave a TGI (RPMI-8226 leukemia) of over 100 µM, a TGI (XF 498 CNS) of over 100 µM and a TGI (KM20L2 colon) of over 100 µM. The TGI (DLD-1 colon) was over 100 µM, the TGI (DMS 273 small cell lung) was over 100 µM and the TGI (SNB-78 CNS) was over 100 µM. The TGI (DMS 114 small cell lung) was over 100 µM.
Compound CCN(CC)Cc1cc(Nc2ccnc3ccc4nn(C)nc4c23)ccc1O has a TGI (M19-MEL melanoma) of 24.7 µM, a TGI (SN12C renal) of 86 µM and a TGI (LXFL 529 NSCLC) of 27.6 µM. The TGI (RXF-631 renal) was 31.3 µM, the TGI (RPMI-8226 leukemia) was over 100 µM and the TGI (XF 498 CNS) was 24.3 µM. The TGI (KM20L2 colon) was 25.3 µM and the TGI (SNB-78 CNS) was 44.9 µM.
COc1ccccc1NC(=O)CC(=O)N1N=C(c2ccccc2)C(N=Nc2ccc(Cl)cc2)C1=O (stereo not given) showed a TGI (M19-MEL melanoma) of over 100 µM, a TGI (SN12C renal) of over 100 µM and a TGI (LXFL 529 NSCLC) of over 100 µM. The TGI (RXF-631 renal) was over 100 µM, the TGI (RPMI-8226 leukemia) was over 100 µM and the TGI (XF 498 CNS) was over 100 µM. It also gave a TGI (KM20L2 colon) of over 100 µM, a TGI (DLD-1 colon) of over 100 µM and a TGI (DMS 273 small cell lung) of over 100 µM. For the same compound, the TGI (SNB-78 CNS) was over 100 µM and the TGI (DMS 114 small cell lung) was over 100 µM.
In the case of CCCCCCCCCCCCC(Br)C(C)=O (stereo not given), the TGI (M19-MEL melanoma) is reported as over 100 µM, the TGI (SN12C renal) is reported as over 100 µM and the TGI (LXFL 529 NSCLC) is reported as over 100 µM. The TGI (RXF-631 renal) was over 100 µM, the TGI (XF 498 CNS) was over 100 µM and the TGI (KM20L2 colon) was over 100 µM. For the same compound, the TGI (DLD-1 colon) was over 100 µM, the TGI (DMS 273 small cell lung) was over 100 µM and the TGI (HOP-18 NSCLC) was over 100 µM. It also gave a TGI (SNB-78 CNS) of over 100 µM and a TGI (DMS 114 small cell lung) of over 100 µM.
Work on COc1cc(CNc2cnc3ccc(N)cc3n2)cc(OC)c1OC yielded a TGI (M19-MEL melanoma) of over 100 µM, a TGI (SN12C renal) of over 100 µM and a TGI (LXFL 529 NSCLC) of over 100 µM. For the same compound, the TGI (RPMI-8226 leukemia) was over 100 µM, the TGI (KM20L2 colon) was over 100 µM and the TGI (DMS 273 small cell lung) was over 100 µM. The TGI (HOP-18 NSCLC) was over 100 µM, the TGI (SNB-78 CNS) was over 100 µM and the TGI (DMS 114 small cell lung) was over 100 µM.
Cc1ccc(-c2nnc3s/c(=C\c4ccc(N(C)C)cc4)c(=O)n23)cc1 gave a TGI (M19-MEL melanoma) of over 100 µM, a TGI (SN12C renal) of over 100 µM and a TGI (LXFL 529 NSCLC) of over 100 µM. For the same compound, the TGI (RXF-631 renal) was over 100 µM, the TGI (RPMI-8226 leukemia) was over 100 µM and the TGI (XF 498 CNS) was over 100 µM. The TGI (KM20L2 colon) was over 100 µM, the TGI (DLD-1 colon) was over 100 µM and the TGI (DMS 273 small cell lung) was over 100 µM. It also gave a TGI (HOP-18 NSCLC) of over 100 µM, a TGI (SNB-78 CNS) of over 100 µM and a TGI (DMS 114 small cell lung) of over 100 µM.
For O=C(O)CCN(CCCN(CCC(=O)O)CCC(=O)O)CCC(=O)O, the TGI (M19-MEL melanoma) was over 100 µM, the TGI (SN12C renal) was over 100 µM and the TGI (LXFL 529 NSCLC) was over 100 µM. It also gave a TGI (RXF-631 renal) of over 100 µM, a TGI (RPMI-8226 leukemia) of over 100 µM and a TGI (XF 498 CNS) of over 100 µM. For the same compound, the TGI (KM20L2 colon) was over 100 µM, the TGI (DLD-1 colon) was over 100 µM and the TGI (DMS 273 small cell lung) was over 100 µM. The TGI (HOP-18 NSCLC) was over 100 µM and the TGI (DMS 114 small cell lung) was over 100 µM.
For CN(C)C(=NC#N)N(Cc1ccccc1)Cc1ccccc1, the TGI (M19-MEL melanoma) was over 100 µM, the TGI (SN12C renal) was over 100 µM and the TGI (LXFL 529 NSCLC) was over 100 µM. The TGI (RPMI-8226 leukemia) was over 100 µM, the TGI (KM20L2 colon) was over 100 µM and the TGI (DLD-1 colon) was over 100 µM. For the same compound, the TGI (DMS 273 small cell lung) was over 100 µM, the TGI (HOP-18 NSCLC) was over 100 µM and the TGI (SNB-78 CNS) was over 100 µM.
CC(C)C(Sc1nc(-c2ccccc2)c(-c2ccccc2)[nH]1)c1n[nH]c(=S)n1-c1ccccc1 (stereo not given) showed a TGI (M19-MEL melanoma) of 35.5 µM, a TGI (SN12C renal) of over 100 µM and a TGI (LXFL 529 NSCLC) of 54.4 µM. The TGI (RPMI-8226 leukemia) was 76 µM, the TGI (XF 498 CNS) was 80.3 µM and the TGI (KM20L2 colon) was 62.8 µM. For the same compound, the TGI (DLD-1 colon) was over 100 µM, the TGI (DMS 273 small cell lung) was over 100 µM and the TGI (SNB-78 CNS) was over 100 µM.
CC(=O)NC1COC(COC(=O)CCCCCCCCCCNC(=O)c2ccc([N+](=O)[O-])c3c(=O)c4ccccc4[nH]c23)C(O)C1OC(C)C(=O)NC(C(=O)NC(CCC(N)=O)C(=O)OCc1ccccc1)C(C)C (stereo not given) gave a TGI (M19-MEL melanoma) of 10.7 µM, a TGI (SN12C renal) of over 92.6 µM and a TGI (LXFL 529 NSCLC) of over 60.6 µM. It also gave a TGI (RXF-631 renal) of over 100 µM, a TGI (MDA-MB-435) of over 100 µM and a TGI (RPMI-8226 leukemia) of 23.1 µM. For the same compound, the TGI (XF 498 CNS) was 34.8 µM, the TGI (KM20L2 colon) was 33.5 µM and the TGI (DLD-1 colon) was 10.1 µM. It also gave a TGI (DMS 273 small cell lung) of 27.3 µM, a TGI (HOP-18 NSCLC) of 43.9 µM and a TGI (SNB-78 CNS) of over 22.8 µM. The TGI (DMS 114 small cell lung) was 30.4 µM.
In the case of CC(=O)NNc1nc(C)c(C(=O)/C=C/c2ccc(Cl)c(Cl)c2)s1, the TGI (M19-MEL melanoma) is reported as over 100 µM, the TGI (SN12C renal) is reported as over 100 µM and the TGI (RXF-631 renal) is reported as over 100 µM. It also gave a TGI (RPMI-8226 leukemia) of over 100 µM, a TGI (KM20L2 colon) of over 100 µM and a TGI (DLD-1 colon) of over 100 µM. It also gave a TGI (DMS 273 small cell lung) of over 100 µM, a TGI (HOP-18 NSCLC) of over 100 µM and a TGI (SNB-78 CNS) of over 100 µM. It also gave a TGI (DMS 114 small cell lung) of over 100 µM.
With COC(=O)Cn1c(=O)oc2nc(-c3ccccc3)cc(C(F)(F)F)c21 the TGI (SN12C renal) was over 100 µM, the TGI (MDA-MB-435) was over 100 µM and the TGI (RPMI-8226 leukemia) was 95.8 µM.
O=[N+]([O-])/C(Cl)=C/C(=C1/Nc2ccccc2O1)[N+](=O)[O-] showed a TGI (SN12C renal) of over 100 µM, a TGI (MDA-MB-435) of 32 µM and a TGI (RPMI-8226 leukemia) of 66.1 µM.
In the case of C/C=C\C(CC(=O)OC)CC(=O)N(CCC1CN(S(=O)(=O)C(F)(F)F)c2ccccc21)Cc1ccc(OC)cc1OC (stereo not given), the TGI (SN12C renal) is reported as over 100 µM, the TGI (MDA-MB-435) is reported as over 100 µM and the TGI (RPMI-8226 leukemia) is reported as over 100 µM.
C=CCCCC1(C)CCNC1=S (stereo not given) was tested, and the TGI (SN12C renal) was over 100 µM, the TGI (MDA-MB-435) was over 100 µM and the TGI (RPMI-8226 leukemia) was over 100 µM.
